Experimental data taken from patent publication US6783774B1 (priority 1990, dated 2004).
“Also recorded” adds a separate entry of the source.

What was measured:
finger scratch bleeding = test: finger scratched to bleed, substance applied to bleeding site; format: in vivo, human; conditions: for black blood coagulation / black color formation: derivatives in powder or gel or liquid form; for stopping of bleeding: powder or gel or liquid form
Text: Myself, finger little scratched, slightly bleeds.

[1] = tested on: massive bleeding of femoral artery; test: femoral artery bleeding in rat, powder poured topically; format: in vivo
Method: Sufficient composition comprising powdered D,L-threo-hex-2-enono-1,4-lactone and excipients stops massive bleeding of femoral artery on contact when femoral artery of a rat is cut off In this case of artery on contact when femoral artery of a rat is cut off. In this case of artery bleeding, it is administered topically by pouring instead of spraying. […] Those white spots indicate the powder that is not yet mixed up with the blood. The gel forms first on the surface of the pond of blood, that stops the fluid moving. If stirring the blood to break through the surface film like structure that keeps the blood fluid from moving when the powder is insufficient, it will bleed again, but much slower than before pouring the powder into the bleeding area; adding sufficient powder into the blood, stirring makes the powder molecules well saturated with the hemoglobin and plasma protein molecules and thus forming the concentrated black gel like structure.

capillary bleeding = capillary bleeding in rat, one capillary cut off; format: in vivo
venous bleeding = test: vein bleeding in rat, one vein cut off; format: in vivo
bleeding nostril = test: nostril bleeding in rat; format: in vivo
gastric bleeding area = test: bleeding area in rat after histamine-induced gastric acid secretion; format: in vivo; conditions: rat after histamine injection; topical to bleeding area
Text: Thus this powder can treat the gastric ulcer bleeding when ingested orally.

[2] = tested on: surgical / dental bleeding; test: clinical evidence: topical powder on surgical and dental bleeding in patients; format: in vivo, human; conditions: person
Method: Person, scalp tumor excision, massive bleeding when the tumor is excised.
Person, acute renal failure, A-V fistula formation operation, masive bleeding. The operation of stopping bleeding consists of combing the powder with pressing with gauzes. […] At the end of the operation, most of black blood coagulation is wiped out with 4×4 gauze, and rinsed with Ringer's solution. It takes totally 5 minutes to stop the bleeding completely, as the surgeon keeps wiping away the coagulation. The patient's conditions are particularly well, better than without using this powder.
Person, skin contracture on the palm, which needs to be removed, and it requires skin graft. When the skin graft is removed from the hand, massive bleeding occurs. On applying sufficient powder to the bleeding area topically, it appears black coagulation on contact. […] Those that appears more black area indicate the more powder mixed up with the blood. Suture going on.
Person, paraanal excision, bleeding when it is opened up. […] Those that appears white are the powder that are not mixed up with the blood. Suture going on.
Person, paranal abscess Excision, massive bleeding when it is opened. […] The white color is the powder instantly not mixed up with the blood yet. Lastly, insert the long gauze into the anus.
Person, chronic hepatitis, has bleeding tendency, extraction of teeth causes massive bleeding.

human blood = test: test tube black blood coagulation of human blood
Text: The present invention is directed to a method for stopping bleeding, comprising administering powdered D,L-threo-hex-2-enono-1,4-lactone tablets thereof to the wound site in an amount of 0.1568 grams for every milliliter of blood. This powder has a very potent coagulation action to stop bleeding when spraying topically on the bleeding area for any normal or diseased patients. When the powder comes in contact with the blood, the black tar like material is formed, and later becomes solid. The amount of the powder that is needed to react completely with the blood is proportional to the amount of the blood that comes out of the blood vessels. […] The artery bleeding needs much more this powder of interest. […] This is the same for normal, colon cancer and hemophilia patients; 1 ml of normal blood needs 0.1568 grams of D,L-threo-hex-2-enono-1,4-lactone powder, 1 ml of colon cancer needs 0.1568 grams of D,L-threo-hex-2-enono-1,4-lactone, 1 ml of hemophilia blood needs 0.1568 grams of D,L-threo-hex-2-enono-1,4-lactone. Sufficient powdered D,L-threo-hex-2-enono-1,4-lactone is particularly useful to stop bleeding in the case of diffuse capillary oozing and mistakenly cut off artery or arteries that can not be found during massive bleeding so as to save the patients's lives therefor. When D,L-threo-hex-2-enono-1,4-lactone is absorbed into the system, it is good for health by making the leucocytes stronger and slowing the aging process etc. However, at the end of operation before closure, the excessive black tar gel like material can be wiped away with Ringer's solution. Normal, liver Disease, Colon Cancer and Hemophilia Blood When tested in the tube, 1 milliliter of human blood requires 0.1568 grams of a composition comprising powdered D,L-threo-hex-2-enono-1,4-lactone to form black blood coagulation by shaking the tube with hand or stirrer machine. It takes 6 minutes to cause the black blood coagulation unmobile in the test tube for normal, liver diseases, colon cancer and hemophilia blood respectively.

O=C1OC(C(O)CO)C(O)=C1OC(=O)c1ccccc1 [D,L-threo-hex-2-enono-1,4-lactone-2-benzoate]
black blood coagulation / black color formation (finger scratch bleeding): the black blood coagulation was formed | stopping of bleeding (finger scratch bleeding): bleeding was stopped on contact

O=C1OC(C(O)CO)C(O)=C1OP(=O)(O)O [D,L-threo-hex-enono-1,4-lactone-2-phosphate]
black blood coagulation / black color formation (finger scratch bleeding): the black blood coagulation was formed | stopping of bleeding (finger scratch bleeding): bleeding was stopped on contact

CCCCCCCCCCCCCCCC(=O)OCC(O)C1OC(=O)C(O)=C1O [D,L-threo-hex-2-enono-1,4-lactone-6-palimitate]
black blood coagulation / black color formation (finger scratch bleeding): the black blood coagulation was formed | stopping of bleeding (finger scratch bleeding): bleeding was stopped on contact

O=C1OC(C(O)CO)C(O)=C1O [D,L-threo-hex-2-enono-1,4-lactone]
bleeding after sticky tar like structure is wiped away ([1]; after 5-6 minutes): no bleeding at all | formation of black tar like material ([1]; as soon as powder contacts the blood): formed in one second | time to stop bleeding ([1]; rat femoral artery bleeding, sufficient powder): within one second | amount of powder usually sufficient to stop bleeding ([1]; rat femoral artery cut off, poured topically, amount varies with rats): 0.1344 grams | bleeding after adding the powder (capillary bleeding; after 1 minute from adding the powder): no more bleeding at all | stopping of bleeding (capillary bleeding; rat, one capillary bleeding): stops the bleeding on contact; also recorded: within one second | amount of powder that stops bleeding (capillary bleeding; rat, one capillary cut off): about 0.0112 grams | bleeding after black coagulation is wiped away (venous bleeding; about 1½ minutes after wiping away): no more bleeding | amount of powder needed to stop bleeding (venous bleeding; rat, one vein cut off): about 0.0224 grams | stopping of bleeding (venous bleeding; rat, one venous bleeding): stop bleeding on contact; also recorded: within one second | amount of powder applied that stops bleeding (bleeding nostril; rat nostril cut slightly): 0.0037 grams | stopping of bleeding (bleeding nostril; rat nostril, 0.0037 grams): the bleeding stops on contact | black coagulation formation (gastric bleeding area): the black coagulation formed, but slower than normal | time to stop the bleeding completely ([2]; A-V fistula plasty, acute renal failure, powder plus gauze pressing, coagulation repeatedly wiped away): 5 min | stopping of bleeding ([2]; extraction of teeth, chronic hepatitis, bleeding tendency): the bleeding in the socket stops on contact | stopping of bleeding ([2]; extraction of tooth): the bleeding stops on contact | persistence of stopped bleeding after wiping out black coagulation ([2]; extraction of tooth, wiped out in 10 seconds): stopped bleeding still persisted | black blood coagulation formation ([2]; paraanal abscess excision, massive bleeding, sprayed): the black color is formed on contact | stopping of bleeding ([2]; paraanal abscess excision, sprayed): it stops bleeding by forming black blood coagulation on contact | stopping of bleeding ([2]; scalp tumor excision, massive bleeding, sprayed): the bleeding atops on contact | stopping of bleeding ([2]; skin contracture excision with skin graft, massive bleeding): Bleeding stops at the same time as the black coagulation forms | black blood coagulation / black color formation (finger scratch bleeding): the black color forms on contact | time after which mixture does not move by shaking or pouring (human blood; 0.1568 grams per 1 ml normal or diseased human blood): 6 min | time to cause black blood coagulation unmobile in the test tube (human blood; colon cancer blood): 6 min | time to cause black blood coagulation unmobile in the test tube (human blood; hemophilia blood): 6 min | time to cause black blood coagulation unmobile in the test tube (human blood; liver diseases blood): 6 min | time to cause black blood coagulation unmobile in the test tube (human blood; normal blood): 6 min | amount needed (human blood; per 1 ml of colon cancer blood): 0.1568 grams | amount needed (human blood; per 1 ml of hemophilia blood): 0.1568 grams | amount needed (human blood; per 1 ml of normal blood): 0.1568 grams | amount required to form black blood coagulation (human blood; per 1 ml of normal or diseased human blood, test tube): 0.1568 grams

D,L-threo-hex-2-enono-1,4-lactone-2-propane
black blood coagulation / black color formation (finger scratch bleeding): the black blood coagulation was formed | stopping of bleeding (finger scratch bleeding): bleeding was stopped on contact
